Measurements reported in ChEMBL document CHEMBL4406912, “Discovery and Optimization of Dibenzodiazepinones as Allosteric Mutant-Selective EGFR Inhibitors” (ACS Med Chem Lett, 2019).
Calls of active or inactive are those of the source. No cut-off for these calls is given here.

Legend:
[1] = biological target: Epidermal growth factor receptor (Homo sapiens, UniProt P00533, L858R); test: Inhibition of human N-terminal GST-tagged EGFR L858R mutant (696 to 1022 residues) expressed in Sf21 insect cells by HTRF assay
[2] = biological target: Epidermal growth factor receptor (Homo sapiens, UniProt P00533, C797S/L858R/T790M); test: Inhibition of human N-terminal GST-tagged EGFR triple T790M/L858R/C797S mutant (696 to 1022 residues) expressed in Sf21 insect cells by HTRF assay
[3] = biological target: Epidermal growth factor receptor (Homo sapiens, UniProt P00533, L858R/T790M); test: Inhibition of human N-terminal GST-tagged EGFR double T790M/L858R mutant (696 to 1022 residues) expressed in Sf21 insect cells by HTRF assay
[4] = biological target: Epidermal growth factor receptor (Homo sapiens, UniProt P00533); test: Inhibition of human N-terminal GST-tagged EGFR (696 to 1022 residues) expressed in Sf21 insect cells by HTRF assay
[5] = biological target: T1, STE20-like serine/threonine-protein kinase (Homo sapiens, UniProt Q9H2G2); test: Inhibition of tracer 236 binding to recombinant full length human GST-tagged SLK expressed in baculovirus expression system measured after 60 mins by Lanthascreen assay relative to control
[6] = biological target: Mast/stem cell growth factor receptor Kit (Homo sapiens, UniProt P10721, V559D/V654A); test: Inhibition of recombinant human His-tagged KIT V559D/V654A double mutant expressed in baculovirus expression system at 10 uM by kinomescan assay
[7] = test system: Epidermal growth factor receptor (Homo sapiens), P00533 [L858R,T790M]; test: Allosteric inhibition of human N-terminal GST-tagged EGFR double T790M/L858R mutant (696 to 1022 residues) expressed in Sf21 insect cells assessed as change in inhibition rate in presence of 1 to 1000 uM ATP by HTRF assay
[8] = biological target: T1, STE20-like serine/threonine-protein kinase; test: Binding affinity to wild-type human partial length SLK (S14 to A307 residues) expressed in bacterial expression system assessed as residual binding level at 10 uM by Kinomescan method

T1 sequence (Q9H2G2 whole entry): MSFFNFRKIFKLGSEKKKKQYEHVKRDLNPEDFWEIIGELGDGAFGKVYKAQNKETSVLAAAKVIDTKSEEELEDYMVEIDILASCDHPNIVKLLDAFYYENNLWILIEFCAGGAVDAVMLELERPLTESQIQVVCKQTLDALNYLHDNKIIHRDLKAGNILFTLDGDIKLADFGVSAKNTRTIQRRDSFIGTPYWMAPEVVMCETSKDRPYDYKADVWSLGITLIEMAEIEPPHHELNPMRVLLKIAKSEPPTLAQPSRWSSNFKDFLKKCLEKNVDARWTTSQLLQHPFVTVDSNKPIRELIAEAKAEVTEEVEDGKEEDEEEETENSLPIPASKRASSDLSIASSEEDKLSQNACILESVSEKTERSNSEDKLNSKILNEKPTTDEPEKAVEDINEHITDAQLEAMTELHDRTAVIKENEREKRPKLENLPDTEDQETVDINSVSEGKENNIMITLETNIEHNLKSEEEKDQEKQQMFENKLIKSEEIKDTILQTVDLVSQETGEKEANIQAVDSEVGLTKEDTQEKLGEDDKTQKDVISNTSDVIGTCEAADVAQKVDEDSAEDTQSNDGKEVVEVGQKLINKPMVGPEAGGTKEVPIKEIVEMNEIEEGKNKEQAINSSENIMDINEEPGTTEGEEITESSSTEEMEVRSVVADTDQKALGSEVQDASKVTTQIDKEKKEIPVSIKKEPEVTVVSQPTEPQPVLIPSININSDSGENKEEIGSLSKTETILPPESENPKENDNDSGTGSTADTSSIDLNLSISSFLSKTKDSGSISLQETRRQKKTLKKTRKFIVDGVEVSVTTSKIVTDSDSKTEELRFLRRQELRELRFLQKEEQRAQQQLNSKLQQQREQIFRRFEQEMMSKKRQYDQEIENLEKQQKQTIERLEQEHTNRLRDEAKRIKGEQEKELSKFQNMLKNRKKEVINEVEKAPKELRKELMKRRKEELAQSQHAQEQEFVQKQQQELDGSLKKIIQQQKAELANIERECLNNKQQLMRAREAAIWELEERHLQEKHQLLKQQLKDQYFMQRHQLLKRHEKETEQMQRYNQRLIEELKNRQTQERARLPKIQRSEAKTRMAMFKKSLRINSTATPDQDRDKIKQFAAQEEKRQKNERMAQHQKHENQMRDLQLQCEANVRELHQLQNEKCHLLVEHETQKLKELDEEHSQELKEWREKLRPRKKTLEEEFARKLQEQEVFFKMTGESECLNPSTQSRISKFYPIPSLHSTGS
Sequence of Epidermal growth factor receptor (Homo sapiens, UniProt P00533, L858R) (P00533 25-1210 L858R limits assumed): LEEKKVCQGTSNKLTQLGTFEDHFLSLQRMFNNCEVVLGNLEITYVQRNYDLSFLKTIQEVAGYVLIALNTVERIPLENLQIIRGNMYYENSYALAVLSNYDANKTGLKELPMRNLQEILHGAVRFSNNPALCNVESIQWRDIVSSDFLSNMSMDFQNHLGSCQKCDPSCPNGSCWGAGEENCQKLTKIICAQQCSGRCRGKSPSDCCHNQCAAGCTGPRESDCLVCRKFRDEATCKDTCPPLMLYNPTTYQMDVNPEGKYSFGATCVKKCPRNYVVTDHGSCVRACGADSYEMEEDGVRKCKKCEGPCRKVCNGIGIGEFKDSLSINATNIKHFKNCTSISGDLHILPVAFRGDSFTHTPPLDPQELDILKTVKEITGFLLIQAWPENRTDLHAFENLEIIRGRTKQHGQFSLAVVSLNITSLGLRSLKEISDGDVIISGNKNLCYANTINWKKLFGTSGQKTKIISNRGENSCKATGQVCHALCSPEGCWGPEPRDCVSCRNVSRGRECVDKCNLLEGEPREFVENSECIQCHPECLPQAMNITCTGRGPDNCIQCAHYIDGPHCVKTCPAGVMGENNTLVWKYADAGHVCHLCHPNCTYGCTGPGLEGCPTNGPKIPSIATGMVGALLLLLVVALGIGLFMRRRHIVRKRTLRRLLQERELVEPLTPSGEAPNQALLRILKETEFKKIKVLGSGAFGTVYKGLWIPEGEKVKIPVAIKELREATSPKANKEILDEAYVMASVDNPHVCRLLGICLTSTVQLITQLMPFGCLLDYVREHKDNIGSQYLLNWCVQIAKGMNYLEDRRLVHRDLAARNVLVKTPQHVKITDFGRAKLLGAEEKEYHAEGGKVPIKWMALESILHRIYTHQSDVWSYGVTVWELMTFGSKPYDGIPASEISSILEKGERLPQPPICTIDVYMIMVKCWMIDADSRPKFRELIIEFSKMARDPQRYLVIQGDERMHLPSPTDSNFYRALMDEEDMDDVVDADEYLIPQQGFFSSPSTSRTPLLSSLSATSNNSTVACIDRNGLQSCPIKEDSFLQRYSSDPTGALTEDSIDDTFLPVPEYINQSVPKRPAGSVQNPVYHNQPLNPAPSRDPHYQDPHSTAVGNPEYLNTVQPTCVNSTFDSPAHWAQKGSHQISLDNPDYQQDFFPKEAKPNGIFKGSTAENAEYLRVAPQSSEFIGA
Sequence of Epidermal growth factor receptor (Homo sapiens, UniProt P00533, L858R/T790M) (P00533 25-1210 T790M/L858R limits assumed): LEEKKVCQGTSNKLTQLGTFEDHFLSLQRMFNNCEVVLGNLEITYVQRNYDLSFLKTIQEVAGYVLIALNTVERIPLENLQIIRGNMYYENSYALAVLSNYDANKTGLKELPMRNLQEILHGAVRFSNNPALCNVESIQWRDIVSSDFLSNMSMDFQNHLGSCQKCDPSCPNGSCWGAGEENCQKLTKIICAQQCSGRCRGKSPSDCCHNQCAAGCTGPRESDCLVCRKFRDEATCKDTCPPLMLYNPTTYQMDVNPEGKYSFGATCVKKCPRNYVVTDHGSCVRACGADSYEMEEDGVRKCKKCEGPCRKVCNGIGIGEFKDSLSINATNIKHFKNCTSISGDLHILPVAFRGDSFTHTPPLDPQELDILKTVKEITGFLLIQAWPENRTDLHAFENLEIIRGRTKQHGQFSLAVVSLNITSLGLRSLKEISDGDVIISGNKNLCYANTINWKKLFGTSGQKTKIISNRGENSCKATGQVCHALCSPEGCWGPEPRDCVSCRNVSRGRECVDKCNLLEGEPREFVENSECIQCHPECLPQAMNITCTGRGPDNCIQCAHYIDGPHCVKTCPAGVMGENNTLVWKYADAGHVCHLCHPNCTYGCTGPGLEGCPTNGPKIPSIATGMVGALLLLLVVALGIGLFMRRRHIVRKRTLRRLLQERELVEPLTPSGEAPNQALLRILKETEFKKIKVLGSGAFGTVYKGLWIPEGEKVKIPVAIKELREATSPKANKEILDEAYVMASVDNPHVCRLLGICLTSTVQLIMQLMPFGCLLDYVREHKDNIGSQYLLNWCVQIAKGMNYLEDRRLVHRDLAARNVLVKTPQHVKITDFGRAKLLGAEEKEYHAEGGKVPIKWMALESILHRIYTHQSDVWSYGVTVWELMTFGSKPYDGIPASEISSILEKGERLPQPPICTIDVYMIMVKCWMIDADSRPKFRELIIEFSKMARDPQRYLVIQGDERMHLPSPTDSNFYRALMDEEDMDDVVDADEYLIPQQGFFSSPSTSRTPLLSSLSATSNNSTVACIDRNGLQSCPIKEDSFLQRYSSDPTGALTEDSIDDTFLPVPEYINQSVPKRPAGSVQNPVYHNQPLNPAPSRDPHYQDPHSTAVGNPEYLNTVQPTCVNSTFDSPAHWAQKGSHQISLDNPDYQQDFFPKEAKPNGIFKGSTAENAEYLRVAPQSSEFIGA
Sequence of Epidermal growth factor receptor (Homo sapiens, UniProt P00533, C797S/L858R/T790M) (P00533 25-1210 T790M/C797S/L858R limits assumed): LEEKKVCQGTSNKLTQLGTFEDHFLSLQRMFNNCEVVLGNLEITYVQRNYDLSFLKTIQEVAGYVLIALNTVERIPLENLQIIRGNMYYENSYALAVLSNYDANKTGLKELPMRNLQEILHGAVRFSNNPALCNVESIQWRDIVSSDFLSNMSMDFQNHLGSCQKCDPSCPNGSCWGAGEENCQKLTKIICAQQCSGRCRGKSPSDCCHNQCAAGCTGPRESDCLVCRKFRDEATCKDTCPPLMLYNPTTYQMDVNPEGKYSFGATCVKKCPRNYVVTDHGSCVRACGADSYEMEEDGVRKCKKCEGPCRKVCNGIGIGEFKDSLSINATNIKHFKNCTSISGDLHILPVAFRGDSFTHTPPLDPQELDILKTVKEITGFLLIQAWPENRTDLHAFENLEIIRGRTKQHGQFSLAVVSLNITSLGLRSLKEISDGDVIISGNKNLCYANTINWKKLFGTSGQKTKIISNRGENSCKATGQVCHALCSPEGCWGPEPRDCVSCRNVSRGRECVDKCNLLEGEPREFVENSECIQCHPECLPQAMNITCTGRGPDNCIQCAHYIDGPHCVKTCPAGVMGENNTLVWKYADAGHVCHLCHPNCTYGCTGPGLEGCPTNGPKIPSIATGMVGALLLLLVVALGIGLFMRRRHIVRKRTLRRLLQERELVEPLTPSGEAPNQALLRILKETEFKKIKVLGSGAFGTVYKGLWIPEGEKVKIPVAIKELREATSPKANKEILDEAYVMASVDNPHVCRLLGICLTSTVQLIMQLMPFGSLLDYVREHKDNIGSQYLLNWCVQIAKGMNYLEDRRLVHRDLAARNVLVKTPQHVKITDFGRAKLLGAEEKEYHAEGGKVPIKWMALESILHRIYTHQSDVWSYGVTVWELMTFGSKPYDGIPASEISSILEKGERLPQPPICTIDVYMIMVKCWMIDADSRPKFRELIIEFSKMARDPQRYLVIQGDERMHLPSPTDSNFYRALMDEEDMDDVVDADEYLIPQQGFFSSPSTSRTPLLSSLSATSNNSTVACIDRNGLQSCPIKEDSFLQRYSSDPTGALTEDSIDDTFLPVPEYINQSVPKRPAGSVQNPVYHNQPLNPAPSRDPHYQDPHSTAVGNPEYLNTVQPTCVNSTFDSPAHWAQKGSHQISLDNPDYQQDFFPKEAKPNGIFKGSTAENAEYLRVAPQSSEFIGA

| Structure (SMILES) | IC50 [1] | IC50 [2] | IC50 [3] | IC50 [4] | IC50 [5] | Kd [6] | inhibition [7] | Kd [8] |
| --- | --- | --- | --- | --- | --- | --- | --- | --- |
| O=C1c2cc(-c3ccc(N4CCNCC4)cc3)ccc2Nc2ccc(F)cc2N1Cc1ccccc1 | 150 nM | 19 nM | 31 nM | > 1000 nM |  |  |  |  |
| CN1CCN(c2ccc(Oc3ccc4c(c3)C(=O)N(Cc3ccccc3)c3cc(F)ccc3N4)cc2)CC1 | 154 nM | 13 nM | 11 nM | > 1000 nM | > 10000 nM | > 10000 nM | inactive | > 10000 nM |
